# Laboratory results taken from PMC12122562, “Phase 1 studies of the indenoisoquinolines LMP776 and LMP744 in patients with solid tumors and lymphomas” (Cancer Chemotherapy and Pharmacology, 2025).
# Where two headings read alike, the source gives them in different places.
# Experiments:
# [1] = system: pKAP1; test: qIF of paired tumor biopsies: nuclear pKAP1; format: in vivo, human; settings: 6 patients at MTD, C1D2
# Excerpt: The LMP744 protocol collected pre-treatment (baseline) and on-treatment paired biopsies from patients in the expansion cohort. Core needle tumor biopsies (18-gauge) were collected and flash-frozen at point of collection per NCI SOPs (https://dctd.cancer.gov/ResearchResources/biomarkers/docs/par/SOP340507_Biopsy_Frozen.pdf) as described to preserve labile post-translational modifications such as phosphorylation. Biopsy pairs were thawed in formalin, fixed in paraffin embedded together with control tissues following NCI SOP340550 (https://dctd.cancer.gov/ResearchResources/biomarkers/DDR3/SOP340550_Biopsy_Section_Testis_Jejunum_Controls.pdf). TOP1 and TOP1cc were measured with a cocktail containing custom-conjugated rabbit monoclonal antibody anti-TOP1-DIG (Abcam, EPR5376 (2)) and mouse monoclonal antibody anti-TOP1cc (clone 1.1A [34, 35], EMD Millipore) that were detected with reporter secondary antibodies AlexaFluor-647 IgG fraction monoclonal mouse anti-digoxin (Jackson ImmunoResearch) and goat/anti-mouse AlexaFluor-488, respectively. Phosphorylated KAP1 (pKAP1, phosphorylated at S824) was measured using custom-conjugated pKAP1-pS824-DNP (Abcam, EPR5248) and detected with AlexaFluor-488 conjugated with anti-dinitrophenyl-KLH rabbit IgG Antibody Fraction (DNP-488, ThermoFisher). […]
# [2] = Plasma pharmacokinetics of LMP744, non-compartmental; format: in vivo, human; settings: for half-life / AUC(0-inf) / AUC(0-t) / Cmax / Tmax: human, plasma, intravenous
# Experimental: Blood was collected during cycle 1 in the LMP744 study on C1D1 at the end of infusion (EOI), then again at 0.25, 0.5, 1, 2, 4, and 6 h after EOI. Blood was also collected prior to infusion and at EOI on days 2–5 during cycle 1, then again at 1 week (168 h) after C1D1 EOI. Samples were collected in EDTA tubes with 2 mL of blood per sample. Samples were centrifuged and plasma was stored at − 70 °C. Samples were analyzed using a validated LC–MS or LC–MS/MS method for each IIQ as previously described. Plasma-time data were analyzed using WinNonlin (Pharsight, Mountain View, CA). AUC values were calculated by non-compartmental analysis and end-of-infusion concentrations were measured on days 1 and 5 of cycle 1. Sample collection and analysis of LMP776 pharmacokinetics were performed as previously described.
structure (smiles),measurement,setting,value
COc1cc2c3c(n(CCCNCCO)c(=O)c2cc1OC)-c1cc2c(cc1C3=O)OCO2 [LMP744],Nuclear pKAP1,[1],increased only in patient 29
same,Cl,"[2]; DL1, 6 mg/m2, n=1",42.3 L/h/m2
same,Vss,"[2]; DL1, 6 mg/m2, n=1",1033.0 L/m2
same,Cl,"[2]; DL2, 12 mg/m2, n=1",74.0 L/h/m2
same,Vss,"[2]; DL2, 12 mg/m2, n=1",1369.0 L/m2
same,Cl,"[2]; DL3, 24 mg/m2, n=3",77.9 (11.2) L/h/m2
same,Vss,"[2]; DL3, 24 mg/m2, n=3",1312.7 L/m2
same,Cl,"[2]; DL4, 48 mg/m2, n=1",72.7 L/h/m2
same,Vss,"[2]; DL4, 48 mg/m2, n=1",828.0 L/m2
same,Cl,"[2]; DL5, 96 mg/m2, n=1",51.7 L/h/m2
same,Vss,"[2]; DL5, 96 mg/m2, n=1",836.6 L/m2
same,Cl,"[2]; DL6 (MTD), 190 mg/m2, n=16",59.1 (26.6) L/h/m2
same,Vss,"[2]; DL6 (MTD), 190 mg/m2, n=16",845.0 L/m2
same,Cl,"[2]; DL7, 260 mg/m2, n=10",73.8 (35.4) L/h/m2
same,Vss,"[2]; DL7, 260 mg/m2, n=10",867.8 L/m2
same,half-life,"[2]; 6 mg/m2, DL1, 6 mg/m2, n=1, read-out: t1/2 (converted)",1400 min
same,half-life,"[2]; 12 mg/m2, DL2, 12 mg/m2, n=1, read-out: t1/2 (converted)",1150 min
same,half-life,"[2]; 24 mg/m2, DL3, 24 mg/m2, n=3, read-out: t1/2 (converted)",840 min
same,half-life,"[2]; 48 mg/m2, DL4, 48 mg/m2, n=1, read-out: t1/2 (converted)",930 min
same,half-life,"[2]; 96 mg/m2, DL5, 96 mg/m2, n=1, read-out: t1/2 (converted)",972 min
same,half-life,"[2]; 190 mg/m2, DL6 (MTD), 190 mg/m2, n=16, read-out: t1/2 (mean half-life) (converted)",816 min
same,half-life,"[2]; 190 mg/m2, MTD (DL6, 190 mg/m^2, n = 16), read-out: Half-life, range",432 to 1400 min
same,half-life,"[2]; 190 mg/m^2, patient 8, Hodgkin lymphoma, read-out: Longest drug half-life measured in this study (converted)",1400 min
same,half-life,"[2]; 260 mg/m2, DL7, 260 mg/m2, n=10, read-out: t1/2 (converted)",654 min
same,AUC(0-inf),"[2]; DL1, 6 mg/m2, n=1",142 ng·h/mL
same,AUC(0-t),"[2]; DL1, 6 mg/m2, n=1",91.7 ng·h/mL
same,Cmax,"[2]; DL1, 6 mg/m2, n=1",48.4 ng/mL
same,Tmax,"[2]; DL1, 6 mg/m2, n=1",1 h
same,AUC(0-inf),"[2]; DL2, 12 mg/m2, n=1",162 ng·h/mL
same,AUC(0-t),"[2]; DL2, 12 mg/m2, n=1",117 ng·h/mL
same,Cmax,"[2]; DL2, 12 mg/m2, n=1",69.6 ng/mL
same,Tmax,"[2]; DL2, 12 mg/m2, n=1",1 h
same,AUC(0-inf),"[2]; DL3, 24 mg/m2, n=3",313 ng·h/mL
same,AUC(0-t),"[2]; DL3, 24 mg/m2, n=3",234 ng·h/mL
same,Cmax,"[2]; DL3, 24 mg/m2, n=3",78.1 ng/mL
same,Tmax,"[2]; DL3, 24 mg/m2, n=3",1.6 h
same,AUC(0-inf),"[2]; DL4, 48 mg/m2, n=1",800 ng·h/mL
same,AUC(0-t),"[2]; DL4, 48 mg/m2, n=1",632 ng·h/mL
same,Cmax,"[2]; DL4, 48 mg/m2, n=1",446 ng/mL
same,Tmax,"[2]; DL4, 48 mg/m2, n=1",1 h
same,AUC(0-inf),"[2]; DL5, 96 mg/m2, n=1",1860 ng·h/mL
same,AUC(0-t),"[2]; DL5, 96 mg/m2, n=1",1390 ng·h/mL
same,Cmax,"[2]; DL5, 96 mg/m2, n=1",433 ng/mL
same,Tmax,"[2]; DL5, 96 mg/m2, n=1",1 h
same,AUC(0-inf),"[2]; DL6 (MTD), 190 mg/m2, n=16",4650 ng·h/mL
same,AUC(0-t),"[2]; DL6 (MTD), 190 mg/m2, n=16",3770 ng·h/mL
same,Cmax,"[2]; DL6 (MTD), 190 mg/m2, n=16",1570 ng/mL
same,Tmax,"[2]; DL6 (MTD), 190 mg/m2, n=16",1 h
same,AUC(0-inf),"[2]; DL7, 260 mg/m2, n=10",4100 ng·h/mL
same,AUC(0-t),"[2]; DL7, 260 mg/m2, n=10",3580 ng·h/mL
same,Cmax,"[2]; DL7, 260 mg/m2, n=10",1500 ng/mL
same,Tmax,"[2]; DL7, 260 mg/m2, n=10",1 h
same,Dependence of half-life on dose,[2]; in vivo,did not vary with dose level
same,Systemic exposure (AUC) versus dose level,[2]; in vivo,increased linearly with dose level
